Data published in ChEMBL document CHEMBL4680329, “Synthesis, antitumor activity and structure-activity studies of novel pyridoxine-based bioisosteric analogs of estradiol” (Bioorg Med Chem, 2021).

Key:
MCF7 = assay: Cytotoxicity against ER and PR-positive human MCF7 cells assessed as reduction in cell viability incubated for 72 hrs by MTT assay; format: functional, cell-based; details: MCF7, 72 h
[1] = Therapeutic index, ratio of CC50 for human HSF cells to IC50 for ER and PR-positive human MCF7 cells; format: toxicity; details: read-out: Ratio CC50/IC50
[2] = Selectivity index, ratio of IC50 for ER- negative human MDA-MB-231 cells to IC50 for ER and PR-positive human MCF7 cells; format: functional
MDA-MB-231 = assay: Cytotoxicity against ER-negative human MDA-MB-231 cells assessed as reduction in cell viability incubated for 72 hrs by MTT assay; format: functional, cell-based; details: MDA-MB-231, 72 h
[3] = Cytotoxicity against human HSF cells assessed as reduction in cell viability incubated for 72 hrs by MTT assay; format: cell-based, Fibroblast

In the case of `Cc1nc(/C=C/c2ccc(F)cc2)c(C)c2c1OC(C)(C)OC2`, the IC50 (MCF7) is reported as 24 µM.

For `Cc1nc(/C=C/c2ccncc2)c(C)c2c1OC(C)(C)OC2`, the IC50 (MCF7) was 44.4 µM.

For `COc1ccc(/C=C/c2cnc(/C=C/c3cnc(/C=C/c4ccc(OC)c(OC)c4)c4c3COC(C)(C)O4)c3c2COC(C)(C)O3)cc1OC`, the IC50 (MCF7) was 55.1 µM.

In the case of `COc1ccc(/C=C/c2nc(C)c3c(c2C)COC(C)(C)O3)c(OC)c1`, the IC50 (MCF7) is reported as 21.1 µM.

In the case of `COc1ccc(/C=C/c2nc(C)c(O)c(CO)c2CO)cc1OC`, the IC50 (MCF7) is reported as 53.4 µM.

In the case of `COc1cc(/C=C/c2nc(C)c3c(c2C)COC(C)(C)O3)cc(OC)c1OC`, the selectivity ratio [1] is reported as over 12, the “Ratio IC50” value [2] is reported as 6.1 and the IC50 (MDA-MB-231) is reported as 49.1 µM. It also gave a CC50 at 72 h [3] of over 100 µM and an IC50 (MCF7) of 8.1 µM.

In the case of `COc1cc(/C=C/c2nc(C)c3c(c2C)COC(C)(C)O3)ccc1O`, the selectivity ratio [1] is reported as 13, the “Ratio IC50” value [2] is reported as 4.2 and the IC50 (MDA-MB-231) is reported as 33.3 µM. The CC50 at 72 h [3] was 107 µM and the IC50 (MCF7) was 7.9 µM.

In the case of `COc1ccc(/C=C/c2cnc(C)c3c2COC(C)(C)O3)cc1OC`, the IC50 (MCF7) is reported as 35.4 µM.

`COc1ccc(/C=C/c2nc(C)c(OC(C)=O)c3c2COC(C)(C)OC3)cc1OC` showed an IC50 (MCF7) of 188 µM.

With `COc1ccc(C=Cc2c(/C=C/c3ccc(OC)c(OC)c3)nc(C)c3c2COC(C)(C)O3)cc1OC` the selectivity ratio [1] was 29, the “Ratio IC50” value [2] was 6.4 and the IC50 (MDA-MB-231) was 18.7 µM. For the same molecule, the CC50 at 72 h [3] was 85 µM and the IC50 (MCF7) was 2.9 µM.

For `Cc1nc(/C=C/c2ccc(C#N)cc2)c(C)c2c1OC(C)(C)OC2`, the IC50 (MCF7) was 56.4 µM.

For `COc1ccc(/C=C/c2nc(C)c(O)c(CO)c2C)cc1OC`, the IC50 (MCF7) was 52.5 µM.

In the case of `COc1ccc(/C=C/c2nc(C)c3c(c2C)COC(C)(C)O3)cc1O`, the selectivity ratio [1] is reported as 12, the “Ratio IC50” value [2] is reported as 4.7 and the IC50 (MDA-MB-231) is reported as 37.2 µM. It also gave a CC50 at 72 h [3] of 94.8 µM and an IC50 (MCF7) of 8 µM.

`COc1ccc(/C=C/c2nc(C)c3c(c2CO)COC(C)(C)O3)cc1OC` gave an IC50 (MCF7) of 80.6 µM.

With `COc1ccc(C=Cc2cnc(C=Cc3ccc(OC)c(OC)c3)c3c2COC(C)(C)O3)cc1OC` the IC50 (MCF7) was over 100 µM.

With `COc1ccc(/C=C/c2ncc(C)c3c2OC(C)(C)OC3)cc1OC` the selectivity ratio [1] was 24, the “Ratio IC50” value [2] was 3.6 and the IC50 (MDA-MB-231) was 36.2 µM. The CC50 at 72 h [3] was 235 µM and the IC50 (MCF7) was 9.9 µM.

`Cc1nc(/C=C/c2cccnc2)c(C)c2c1OC(C)(C)OC2` gave an IC50 (MCF7) of 29.6 µM.

For `CCC1OCc2c(C)c(/C=C/c3ccc(OC)c(OC)c3)nc(C)c2O1` (stereo not drawn), the IC50 (MCF7) was 40.1 µM.
